Laboratory results from patent US20240199661A1, “BICYCLIC HETEROARYL PHOSPHONATE DERIVATIVES AS ECTONUCLEOTIDE PYROPHOSPHATASE PHOSPHODIESTERASE 1 INHIBITORS” (RIBOSCIENCE LLC, priority 2021, published 2024).
Counter-ions that a name gives are not always drawn.

Biological target: T1, ENPP1 (Homo sapiens, UniProt P22413)
T1 sequence (P22413 1-925): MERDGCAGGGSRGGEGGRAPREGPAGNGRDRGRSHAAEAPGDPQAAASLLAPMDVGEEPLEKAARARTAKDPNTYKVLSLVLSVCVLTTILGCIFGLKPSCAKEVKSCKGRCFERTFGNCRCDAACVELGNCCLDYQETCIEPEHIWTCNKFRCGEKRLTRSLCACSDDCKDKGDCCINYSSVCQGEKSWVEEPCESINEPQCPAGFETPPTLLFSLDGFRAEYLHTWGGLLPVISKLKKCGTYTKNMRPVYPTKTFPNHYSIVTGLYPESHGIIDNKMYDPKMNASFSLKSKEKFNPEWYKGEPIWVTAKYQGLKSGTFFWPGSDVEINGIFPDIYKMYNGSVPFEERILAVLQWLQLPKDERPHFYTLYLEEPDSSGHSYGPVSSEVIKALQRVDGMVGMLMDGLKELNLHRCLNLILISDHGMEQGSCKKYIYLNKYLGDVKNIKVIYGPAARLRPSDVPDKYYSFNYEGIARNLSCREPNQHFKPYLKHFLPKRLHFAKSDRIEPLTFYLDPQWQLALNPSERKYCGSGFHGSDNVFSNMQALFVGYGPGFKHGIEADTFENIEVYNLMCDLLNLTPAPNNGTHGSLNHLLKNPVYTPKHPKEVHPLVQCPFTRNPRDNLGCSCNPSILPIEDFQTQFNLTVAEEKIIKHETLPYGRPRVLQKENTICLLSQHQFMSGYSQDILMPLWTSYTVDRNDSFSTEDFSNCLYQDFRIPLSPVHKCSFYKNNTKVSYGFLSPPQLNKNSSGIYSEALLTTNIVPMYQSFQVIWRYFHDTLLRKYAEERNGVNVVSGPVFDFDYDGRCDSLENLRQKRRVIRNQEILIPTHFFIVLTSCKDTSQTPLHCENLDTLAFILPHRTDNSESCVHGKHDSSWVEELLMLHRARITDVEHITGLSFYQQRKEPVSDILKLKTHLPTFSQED
Test: Measurement of pNP-TMP hydrolysis by ENPP1 (enzyme activity assay, absorbance at 405 nm)
Format: biochemical
Conditions: purified ENPP1, 500 μM pNP-TMP, Km 232 μM; Ki from IC50 by Cheng-Prusoff
Description: Measurement of pNP-TMP Hydrolysis by ENPP1
p-Nitrophenyl thymidine 5′-monophosphate (pNP-TMP) is a synthesized substrate for ENPP1. The ENPP1 enzyme activity assay with pNP-TMP substrate was conducted as follows:
First, in a 60 μl reaction, 7.5 ng purified ENPP1 was mixed with compounds of Formula (I) (test compound) ranging from 13.7 pM to 10 μM. Incubation of ENPP1 with compounds was set at 25° C. for 10 min. Reactions with DMSO only (with ENPP1 but no compound) gave the fastest reaction (MAX Activity). For each compound dilution, wells with assay buffer (50 mM Tris-HCl, pH8.8, 250 mM NaCl, 0.1 mg/ml BSA, 1% DMSO) only but no ENPP1 were included as controls for subtraction of test compound derived absorbance at 405 nm.
Second, after the 10 minutes ENPP1 and test compound incubation the assay was initiated by transferring 50 μl of the above mentioned ENPP1/test compound reaction into 50 μl of 1 mM pNP-TMP in assay buffer results in a 100 μl total reaction in clear bottom 96 well plates. Absorbance at 405 nm was recorded immediately in kinetic mode by PerkinElmer 2300 Enspire multimode plate reader.
For each inhibitor, the specific ENPP1 activity was calculated using the following equation: ENPP1 activity (pmol/min/μg)=Adjusted Vmax (OD405 nm/min)×conversion factor (pmol/OD405 nm)/amount of enzyme (μg)
Adjusted Vmax=V0×(Km+(S))/(S). In this assay, Km=232 μM, (S)=500 μM. Adjusted Vmax=1.464×V0.
V0=(OD405 nm with ENPP1−OD405 nm ENPP1 blank)/minutes. OD405 nm was plotted, with blank subtracted, against time (minutes), the initial linear rate is V0. […]
The conversion factor (pmol/OD405 nm), was determined by plotting the amount of standard, 4-Nitrophenol (Sigma-Aldrich, Catalog #241326), against absorbance at 405 nm. The slope is the conversion factor. The percent ENPP1 activity for each sample was calculated using the following equation:
% enzyme activity=sample enzyme activity/MAX Activity×100%.
To determine the IC50 for each compound, compound concentration values and percent enzyme activity values were inserted into GraphPad Prism (GraphPad Prism version 7.0 for Windows, GraphPad Software, La Jolla California USA, www.graphpad.com), and Prism's Transform analysis was used to convert the x-axis values (compound concentration) to logarithms. A sigmoidal variable slope nonlinear regression analysis was performed using the following equation: Y=Bottom+(Top−Bottom)/(1+10^((Log IC50−X)*HillSlope)).
Ki values for each compound were calculated from the observed IC50 from GraphPad analysis using the Cheng-Prusoff equation: Ki=IC50/(1+(S)/KM). (S) here is 500 μM and KM is determined to be 232 μM.

Row | Ki | SMILES
1 | < 0.1 µM | Cn1ncc2ncnc(NCc3ccc(P(=O)(O)O)cc3)c21 [Compound 1, 4-[([1-methylpyrazolo[4,3-d]pyrimidin-7-yl]amino)methyl]-phenyl-phosphonic acid]
2 | < 1 µM | CNC(=O)c1c[nH]c2c(NCc3ccc(P(=O)(O)O)cc3)ncnc12 [Compound 3, 4-([[7-(methylcarbamoyl)-5H-pyrrolo[3,2-d]pyrimidin-4-yl]amino]-methyl)phenylphosphonic acid]
3 | < 1 µM | CNC(=O)c1c[nH]c2c(NCc3ccc(CP(=O)(O)O)cc3)ncnc12 [Compound 4, [4-([[7-(methylcarbamoyl)-5H-pyrrolo[3,2-d]pyrimidin-4-yl]amino]-methyl)phenyl]methylphosphonic acid]
4 | < 1 µM | CNC(=O)c1c[nH]c2c(N3CCC(CCP(=O)(O)O)CC3)ncnc12 [Compound 6, 2-[1-[7-(methylcarbamoyl)-5H-pyrrolo[3,2-d]pyrimidin-4-yl]-piperidin-4-yl]ethylphosphonic acid]
5 | < 1 µM | CNC(=O)c1c[nH]c2c(N3CCC(CP(=O)(O)O)CC3)ncnc12 [Compound 9, [1-[7-(methylcarbamoyl)-5H-pyrrolo[3,2-d]pyrimidin-4-yl]piperidin-4-yl]methylphosphonic acid]
6 | < 10 µM | CNC(=O)c1c[nH]c2c(N3CCC(CCCP(=O)(O)O)CC3)ncnc12 [Compound 11, 3-[1-[7-(methylcarbamoyl)-5H-pyrrolo[3,2-d]pyrimidin-4-yl]-piperidin-4-yl]propylphosphonic acid]
7 | < 0.1 µM | O=P(O)(O)c1ccc(CNc2ncnc3cn[nH]c23)cc1 [Compound 12, 4-([1H-pyrazolo[4,3-d]pyrimidin-7-ylamino]methyl)phenyl-phosphonic acid]
8 | < 1 µM | NC(=O)c1n[nH]c2c(NCc3ccc(P(=O)(O)O)cc3)ncnc12 [Compound 14, 4-[([3-carbamoyl-1H-pyrazolo[4,3-d]pyrimidin-7-yl]amino)methyl]-phenylphosphonic acid]
9 | < 0.1 µM | CC(=O)Nc1csc2c(NCc3ccc(P(=O)(O)O)cc3)ncnc12 [Compound 15, 4-[([7-acetamidothieno[3,2-d]pyrimidin-4-yl]amino)methyl]-phenylphosphonic acid]
10 | < 0.1 µM | O=P(O)(O)c1ccc(CNc2ncnc3ccsc23)cc1 [Compound 16, 4-([thieno[3,2-d]pyrimidin-4-ylamino]methyl)phenyl-phosphonic acid]
11 | < 1 µM | CC(C)c1nc(NCc2ccc(P(=O)(O)O)cc2)c2c(cnn2C)n1 [Compound 17, 4-(((5-isopropyl-1-methyl-1H-pyrazolo[4,3-d]pyrimidin-7-yl)amino)methyl)phenyl-phosphonic acid]
12 | < 1 µM | CC(C)c1nc(NCc2ccc(P(=O)(O)O)cc2)c2[nH]ncc2n1 [Compound 18, 4-[([5-isopropyl-1H-pyrazolo[4,3-d]pyrimidin-7-yl]amino)methyl]phenylphosphonic acid formic acid salt]

Row | SMILES | Ki
13 | CCOP(=O)(CC1CCN(c2ncnc3c(C(=O)NC)c[nH]c23)CC1)OCC (single isomer, unassigned) [Compound 7, diethyl [1-[7-(methylcarbamoyl)-5H-pyrrolo[3,2-d]pyrimidin-4-yl]-piperidin-4-yl]methylphosphonate] | > 10 µM
14 | CCOP(=O)(O)c1ccc(CNc2ncnc3c(C(=O)NC)c[nH]c23)cc1 [Compound 2, ethoxy(4-([[7-(methylcarbamoyl)-5H-pyrrolo[3,2-d]pyrimidin-4-yl]-amino]methyl)phenyl)phosphinic acid] | > 10 µM
15 | CCOP(=O)(O)CCCC1CCN(c2ncnc3c(C(=O)NC)c[nH]c23)CC1 [Compound 10, ethoxy(3-[1-[7-(methylcarbamoyl)-5H-pyrrolo[3,2-d]pyrimidin-4-yl]-piperidin-4-yl]propyl)phosphinic acid] | > 10 µM

System: HGS tumor model
Test: Anti-tumor activity in HGS tumor model
Format: in vivo
Conditions: 20/kg of compound

Row | SMILES | antitumor activity
16 | C=CC(=O)N1CCN(CCCn2c(=O)c(-c3c(Cl)c(OC)cc(OC)c3Cl)cc3cnc(NC)nc32)CC1 [8-(3-(4-acryloylpiperazin-1-yl)propyl)-6-(2,6-dichloro-3,5-dimethoxyphenyl)-2-(methylamino)pyrido[2,3-d]pyrimidin-7(8H)-one] | significant antitumor activity and induced tumor regression

Same assay, conditions: animals treated with 20/kg of compound, day 42 after inoculation (vehicle 645)

Row | SMILES | tumor size
17 | C=CC(=O)N1CCN(CCCn2c(=O)c(-c3c(Cl)c(OC)cc(OC)c3Cl)cc3cnc(NC)nc32)CC1 [8-(3-(4-acryloylpiperazin-1-yl)propyl)-6-(2,6-dichloro-3,5-dimethoxyphenyl)-2-(methylamino)pyrido[2,3-d]pyrimidin-7(8H)-one] | 55 mm3
